Results as given in publication PMC5218480 (PLoS ONE, 2017).

Tested on: MV-4-11 cells
Assay: Gene expression microarray analysis (Affymetrix PrimeView) and GSEA
Assay type: cell-based, human
Design: RFU PODN (11730768_x_at) / Fold change /veh PODN (11730768_x_at) / RFU LINC00158 (11744669_a_at) / Fold change /veh LINC00158 (11744669_a_at) / RFU DUSP10 (11751237_a_at) / Fold change /veh DUSP10 (11751237_a_at) / RFU ID3 (11757404_x_at) / Fold change /veh ID3 (11757404_x_at) / RFU PLEKHG5 (11737974_s_at) / Fold change /veh PLEKHG5 (11737974_s_at) / RFU LRRC4B (11730491_at) / Fold change /veh LRRC4B (11730491_at) / RFU GIMAP4 (11747438_a_at) / Fold change /veh GIMAP4 (11747438_a_at) / RFU KRT8 (11758183_x_at) / Fold change /veh KRT8 (11758183_x_at) / RFU CNN1 (11734310_a_at) / Fold change /veh CNN1 (11734310_a_at) / RFU VPS37D (11726825_at) / Fold change /veh VPS37D (11726825_at) / RFU C10orf10 (11716522_x_at) / Fold change /veh C10orf10 (11716522_x_at) / RFU KIR2DL2 /// KIR2DL4 /// KIR2DL5A /// KIR2DL5B /// KIR2DS1 /// KIR2DS2 /// KIR2DS3 /// KIR2DS4 /// KIR3DL3 /// KIR3DL3 /// KIR3DS1 (11738374_at) / Fold change /veh KIR2DL2 /// KIR2DL4 /// KIR2DL5A /// KIR2DL5B /// KIR2DS1 /// KIR2DS2 /// KIR2DS3 /// KIR2DS4 /// KIR3DL3 /// KIR3DL3 /// KIR3DS1 (11738374_at) / RFU C1QL1 (11718748_at) / Fold change /veh C1QL1 (11718748_at) / RFU TMPRSS4 (11747572_a_at) / Fold change /veh TMPRSS4 (11747572_a_at) / RFU HAMP (11756126_x_at) / Fold change /veh HAMP (11756126_x_at) / RFU RNFT2 (11725882_a_at) / Fold change /veh RNFT2 (11725882_a_at) / RFU NR4A2 (11747474_a_at) / Fold change /veh NR4A2 (11747474_a_at) / RFU ABCC12 (11746883_a_at) / Fold change /veh ABCC12 (11746883_a_at) / RFU TMEM136 (11760407_x_at) / Fold change /veh TMEM136 (11760407_x_at) / RFU CLDN22 /// WWC2 (11732394_at) / Fold change /veh CLDN22 /// WWC2 (11732394_at) / RFU HLA-DPB1 (11760878_x_at) / Fold change /veh HLA-DPB1 (11760878_x_at) / RFU SPINT1 (11716480_a_at) / Fold change /veh SPINT1 (11716480_a_at) / RFU GAP43 (11754022_s_at) / Fold change /veh GAP43 (11754022_s_at) / RFU A4GNT (11735810_at) / Fold change /veh A4GNT (11735810_at) / RFU PRB3 (11715151_x_at) / Fold change /veh PRB3 (11715151_x_at) / RFU TUBB4B (11761932_at) / Fold change /veh TUBB4B (11761932_at) / RFU CAPN14 (11732068_a_at) / Fold change /veh CAPN14 (11732068_a_at) / RFU TMCC2 (11721928_a_at) / Fold change /veh TMCC2 (11721928_a_at) / RFU IRGQ (11745062_a_at) / Fold change /veh IRGQ (11745062_a_at) / RFU FAM174B (11720279_a_at) / Fold change /veh FAM174B (11720279_a_at) / RFU TMPRSS4 (11748680_a_at) / Fold change /veh TMPRSS4 (11748680_a_at) / RFU FAM212B (11763350_a_at) / Fold change /veh FAM212B (11763350_a_at) / RFU PLEKHG5 (11743358_a_at) / Fold change /veh PLEKHG5 (11743358_a_at) / RFU ZSCAN30 (11745921_a_at) / Fold change /veh ZSCAN30 (11745921_a_at) / RFU CMKLR1 (11741424_a_at) / Fold change /veh CMKLR1 (11741424_a_at) / RFU LOC101060620 /// MAPK8IP1 (11723275_at) / Fold change /veh LOC101060620 /// MAPK8IP1 (11723275_at) / RFU SPTSSB (11747773_x_at) / Fold change /veh SPTSSB (11747773_x_at) / RFU PRSS12 (11739890_at) / Fold change /veh PRSS12 (11739890_at) / RFU BIN1 (11741810_x_at) / Fold change /veh BIN1 (11741810_x_at) / RFU WNT11 (11732464_a_at) / Fold change /veh WNT11 (11732464_a_at) / RFU C10orf10 (11716521_a_at) / Fold change /veh C10orf10 (11716521_a_at) / RFU C5orf56 (11738089_at) / Fold change /veh C5orf56 (11738089_at) / RFU CYB561 (11721691_x_at) / Fold change /veh CYB561 (11721691_x_at) / RFU ANKRD19P (11752326_a_at) / Fold change /veh ANKRD19P (11752326_a_at) / RFU OR2T12 /// OR2T33 /// OR2T8 (11738714_s_at) / Fold change /veh OR2T12 /// OR2T33 /// OR2T8 (11738714_s_at) / RFU VCAN (11748164_a_at) / Fold change /veh VCAN (11748164_a_at) / RFU JSRP1 (11732532_at) / Fold change /veh JSRP1 (11732532_at) / RFU KRTAP10-11 (11738290_x_at) / Fold change /veh KRTAP10-11 (11738290_x_at) / RFU MYO3A (11730013_a_at) / Fold change /veh MYO3A (11730013_a_at) / RFU EBF3 (11725865_a_at) / Fold change /veh EBF3 (11725865_a_at) / RFU CAMK2N1 (11719241_x_at) / Fold change /veh CAMK2N1 (11719241_x_at) / RFU C5orf56 (11738088_a_at) / Fold change /veh C5orf56 (11738088_a_at) / RFU OLFML3 (11715873_a_at) / Fold change /veh OLFML3 (11715873_a_at) / RFU LOC100653217 /// NTM (11731650_a_at) / Fold change /veh LOC100653217 /// NTM (11731650_a_at) / RFU MAPK11 (11762145_a_at) / Fold change /veh MAPK11 (11762145_a_at) / RFU FIZ1 (11724087_x_at) / Fold change /veh FIZ1 (11724087_x_at) / RFU OASL (11726364_x_at) / Fold change /veh OASL (11726364_x_at) / RFU SOX15 (11748057_x_at) / Fold change /veh SOX15 (11748057_x_at) / RFU CD79A (11719716_a_at) / Fold change /veh CD79A (11719716_a_at) / RFU HIST1H1D (11736915_at) / Fold change /veh HIST1H1D (11736915_at) / RFU CASKIN2 (11723855_a_at) / Fold change /veh CASKIN2 (11723855_a_at) / RFU LOC730098 (11760151_x_at) / Fold change /veh LOC730098 (11760151_x_at) / RFU OR4N2 (11742367_at) / Fold change /veh OR4N2 (11742367_at) / RFU PRRT2 (11749266_a_at) / Fold change /veh PRRT2 (11749266_a_at) / RFU SNX32 (11753110_a_at) / Fold change /veh SNX32 (11753110_a_at) / RFU CDHR5 (11726645_a_at) / Fold change /veh CDHR5 (11726645_a_at) / RFU RCAN1 (11760418_a_at) / Fold change /veh RCAN1 (11760418_a_at) / RFU FAM167A (11723789_a_at) / Fold change /veh FAM167A (11723789_a_at) / RFU FAM26E (11764081_at) / Fold change /veh FAM26E (11764081_at) / RFU ISYNA1 (11749810_s_at) / Fold change /veh ISYNA1 (11749810_s_at) / RFU ACY1 (11761880_at) / Fold change /veh ACY1 (11761880_at) / RFU 11764098_at / Fold change /veh 11764098_at / RFU SAMD14 (11745864_x_at) / Fold change /veh SAMD14 (11745864_x_at) / RFU NPB (11741838_a_at) / Fold change /veh NPB (11741838_a_at) / RFU TMPRSS6 (11731388_a_at) / Fold change /veh TMPRSS6 (11731388_a_at) / RFU KRTAP10-2 (11738614_at) / Fold change /veh KRTAP10-2 (11738614_at) / RFU ARHGAP8 /// PRR5-ARHGAP8 (11727945_x_at) / Fold change /veh ARHGAP8 /// PRR5-ARHGAP8 (11727945_x_at) / RFU KRTAP5-7 /// NADSYN1 (11734609_at) / Fold change /veh KRTAP5-7 /// NADSYN1 (11734609_at) / RFU RASL12 (11751679_a_at) / Fold change /veh RASL12 (11751679_a_at) / RFU CDKN2B (11736163_a_at) / Fold change /veh CDKN2B (11736163_a_at) / RFU PRF1 (11729649_at) / Fold change /veh PRF1 (11729649_at) / RFU, ZNF638 /// ZNF638-IT1 / Fold change vs veh, ZNF638 /// ZNF638-IT1 / RFU, PANK3 / Fold change vs veh, PANK3 / RFU, SH3YL1 / Fold change vs veh, SH3YL1 / RFU, ZEB2 / Fold change vs veh, ZEB2 / RFU, NRIP1 / Fold change vs veh, NRIP1 / RFU, PTTG1IP / Fold change vs veh, PTTG1IP / RFU, CAPN2 / Fold change vs veh, CAPN2 / RFU, MED14 / Fold change vs veh, MED14 / RFU, SNORA58 / Fold change vs veh, SNORA58 / RFU, C1orf63 / Fold change vs veh, C1orf63 / RFU, LRRFIP1 / Fold change vs veh, LRRFIP1 / RFU, NDUFAF7 / Fold change vs veh, NDUFAF7 / RFU, SLC12A2 / Fold change vs veh, SLC12A2 / RFU, IBTK / Fold change vs veh, IBTK / RFU, ESF1 / Fold change vs veh, ESF1 / Fold change vs veh, TMEM50B / RFU, TAOK1 / Fold change vs veh, TAOK1 / RFU, ACBD3 / Fold change vs veh, ACBD3 / RFU, TMA16 / Fold change vs veh, TMA16 / RFU, RWDD3 / Fold change vs veh, RWDD3 / RFU, BCAT1 / Fold change vs veh, BCAT1 / RFU, EDEM3 / Fold change vs veh, EDEM3 / RFU, TMEM33 / Fold change vs veh, TMEM33 / RFU, WDR75 / Fold change vs veh, WDR75 / RFU, AHCTF1 / Fold change vs veh, AHCTF1 / RFU, TFRC / Fold change vs veh, TFRC / RFU, ZDHHC17 / Fold change vs veh, ZDHHC17 / RFU, NOM1 / Fold change vs veh, NOM1 / RFU, ARL8B / Fold change vs veh, ARL8B / RFU, ZBTB11 / Fold change vs veh, ZBTB11 / RFU, TAMM41 / Fold change vs veh, TAMM41 / RFU, KIAA1704 /// LOC100996395 / Fold change vs veh, KIAA1704 /// LOC100996395 / RFU, ING1 / Fold change vs veh, ING1 / RFU, TRMT61B / Fold change vs veh, TRMT61B / RFU, FUBP3 / Fold change vs veh, FUBP3 / RFU, TP53 / Fold change vs veh, TP53 / RFU, TNKS2 / Fold change vs veh, TNKS2 / RFU, ZFP14 / Fold change vs veh, ZFP14 / RFU, ACTR2 / Fold change vs veh, ACTR2 / RFU, PPP3R1 / Fold change vs veh, PPP3R1 / RFU, PIK3R1 / Fold change vs veh, PIK3R1 / RFU, HNRNPA1 / Fold change vs veh, HNRNPA1 / RFU, RNF170 / Fold change vs veh, RNF170 / RFU, ZNF28 / Fold change vs veh, ZNF28 / RFU, RNGTT / Fold change vs veh, RNGTT / RFU, OGT / Fold change vs veh, OGT / RFU, BRD1 / Fold change vs veh, BRD1 / RFU, MARS / Fold change vs veh, MARS / RFU, ZNF655 / Fold change vs veh, ZNF655 / RFU, FAHD1 / Fold change vs veh, FAHD1 / RFU, BDP1 / Fold change vs veh, BDP1 / RFU, LRRCC1 / Fold change vs veh, LRRCC1 / RFU, ARID1A / Fold change vs veh, ARID1A / RFU, ZNF146 / Fold change vs veh, ZNF146 / RFU, ZNF330 / Fold change vs veh, ZNF330 / RFU, GPN3 / Fold change vs veh, GPN3 / RFU, C9orf123 / Fold change vs veh, C9orf123 / RFU, N4BP2L2 / Fold change vs veh, N4BP2L2 / RFU, ARFIP1 / Fold change vs veh, ARFIP1 / RFU, FAM179B / Fold change vs veh, FAM179B / RFU, BCL10 / Fold change vs veh, BCL10 / RFU, UHRF1BP1L / Fold change vs veh, UHRF1BP1L / RFU, BET1 / Fold change vs veh, BET1 / RFU, CNOT2 / Fold change vs veh, CNOT2 / RFU, ZNF268 / Fold change vs veh, ZNF268 / Fold change vs veh, ZNF507 / RFU, DGCR2 / Fold change vs veh, DGCR2 / RFU, WDSUB1 / Fold change vs veh, WDSUB1 / Fold change vs veh, HSP90B1 /// MIR3652 / RFU, ADSS / Fold change vs veh, ADSS / RFU, GK / Fold change vs veh, GK / RFU, ZNF148 / Fold change vs veh, ZNF148 / RFU, TAF9 / Fold change vs veh, TAF9 / RFU, SLC1A5 / Fold change vs veh, SLC1A5 / RFU, SLMO2 / Fold change vs veh, SLMO2 / RFU, ABCC4 / Fold change vs veh, ABCC4 / RFU, LOC101060439 /// RAP1B / Fold change vs veh, LOC101060439 /// RAP1B / RFU, RFX7 / Fold change vs veh, RFX7 / RFU, GTPBP10 / Fold change vs veh, GTPBP10 / RFU, CNEP1R1 / Fold change vs veh, CNEP1R1 / RFU, BIVM-ERCC5 /// ERCC5 / Fold change vs veh, BIVM-ERCC5 /// ERCC5 / RFU, ILF3 / Fold change vs veh, ILF3 / RFU 11762660_at / Fold change /veh 11762660_at / RFU VCAN (11757783_s_at) / Fold change /veh VCAN (11757783_s_at) / RFU DDX43 (11728927_at) / Fold change /veh DDX43 (11728927_at) / RFU KRT8 (11758188_x_at) / Fold change /veh KRT8 (11758188_x_at) / RFU NKD1 (11759106_at) / Fold change /veh NKD1 (11759106_at) / RFU SRD5A1 (11742802_a_at) / Fold change /veh SRD5A1 (11742802_a_at) / RFU TPSAB1 /// TPSB2 (11721975_s_at) / Fold change /veh TPSAB1 /// TPSB2 (11721975_s_at) / RFU GSTM3 (11746129_a_at) / Fold change /veh GSTM3 (11746129_a_at) / RFU IL23R (11737362_x_at) / Fold change /veh IL23R (11737362_x_at) / RFU TMEM51 (11727254_a_at) / Fold change /veh TMEM51 (11727254_a_at) / RFU PIWIL2 (11732686_x_at) / Fold change /veh PIWIL2 (11732686_x_at) / RFU ORM1 (11744905_x_at) / Fold change /veh ORM1 (11744905_x_at) / RFU CCDC152 (11743942_at) / Fold change /veh CCDC152 (11743942_at) / RFU ECM1 (11717891_a_at) / Fold change /veh ECM1 (11717891_a_at) / RFU IL23R (11748794_a_at) / Fold change /veh IL23R (11748794_a_at) / RFU TNFAIP8L3 (11732012_x_at) / Fold change /veh TNFAIP8L3 (11732012_x_at) / RFU MBOAT4 (11741988_at) / Fold change /veh MBOAT4 (11741988_at) / RFU 11764193_at / Fold change /veh 11764193_at / RFU TMEM53 (11763286_at) / Fold change /veh TMEM53 (11763286_at) / RFU MAGEB2 (11727129_at) / Fold change /veh MAGEB2 (11727129_at) / RFU TMEM200A (11744735_a_at) / Fold change /veh TMEM200A (11744735_a_at) / RFU CCDC152 (11751479_a_at) / Fold change /veh CCDC152 (11751479_a_at) / RFU FAM211A (11726209_a_at) / Fold change /veh FAM211A (11726209_a_at) / RFU RGS16 (11746705_a_at) / Fold change /veh RGS16 (11746705_a_at) / RFU VCAN (11755009_s_at) / Fold change /veh VCAN (11755009_s_at) / RFU RHOB (11743442_s_at) / Fold change /veh RHOB (11743442_s_at) / RFU RGS16 (11720943_a_at) / Fold change /veh RGS16 (11720943_a_at) / RFU RGS16 (11720944_at) / Fold change /veh RGS16 (11720944_at) / RFU, VPS4B / Fold change vs veh, VPS4B / RFU, CREB1 / Fold change vs veh, CREB1 / RFU, DNAJC13 / Fold change vs veh, DNAJC13 / RFU, GNAQ / Fold change vs veh, GNAQ / RFU, CDK5R1 / Fold change vs veh, CDK5R1 / RFU, ZRANB3 / Fold change vs veh, ZRANB3 / RFU, CUL4A / Fold change vs veh, CUL4A / RFU, CCNY / Fold change vs veh, CCNY / RFU, UFL1 / Fold change vs veh, UFL1 / RFU, COG3 / Fold change vs veh, COG3 / RFU, DIAPH2 / Fold change vs veh, DIAPH2 / RFU, SKA2 / Fold change vs veh, SKA2 / RFU, AFF3 / Fold change vs veh, AFF3 / RFU, LMF1 / Fold change vs veh, LMF1 / RFU, IPO11 / Fold change vs veh, IPO11 / RFU, DFFB / Fold change vs veh, DFFB / RFU, FOXP1 / Fold change vs veh, FOXP1 / RFU, CARD8 / Fold change vs veh, CARD8 / RFU, STRN3 / Fold change vs veh, STRN3 / RFU, ADK / Fold change vs veh, ADK / RFU, RASSF2 / Fold change vs veh, RASSF2 / RFU, WIPF1 / Fold change vs veh, WIPF1 / RFU, LARP1B / Fold change vs veh, LARP1B / RFU, RASA1 / Fold change vs veh, RASA1 / RFU, RB1 / Fold change vs veh, RB1 / RFU, PPFIA1 / Fold change vs veh, PPFIA1 / RFU, MAT2A / Fold change vs veh, MAT2A / RFU, CCT5 / Fold change vs veh, CCT5 / RFU, WDR92 / Fold change vs veh, WDR92 / RFU, CUX1 / Fold change vs veh, CUX1 / RFU, TTC7A / Fold change vs veh, TTC7A / RFU, TMEM135 / Fold change vs veh, TMEM135 / RFU, DEPTOR / Fold change vs veh, DEPTOR / RFU, CPM / Fold change vs veh, CPM / RFU, DNAJB6 / Fold change vs veh, DNAJB6 / RFU, CACNA2D3 / Fold change vs veh, CACNA2D3 / RFU, DTX4 / Fold change vs veh, DTX4 / RFU, TFCP2 / Fold change vs veh, TFCP2 / RFU, GMCL1 /// GMCL1P1 / Fold change vs veh, GMCL1 /// GMCL1P1 / RFU, AEBP2 / Fold change vs veh, AEBP2 / RFU, SNHG1 /// SNORD22 /// SNORD25 /// SNORD26 /// SNORD27 /// SNORD28 /// SNORD29 /// SNORD31 / Fold change vs veh, SNHG1 /// SNORD22 /// SNORD25 /// SNORD26 /// SNORD27 /// SNORD28 /// SNORD29 /// SNORD31 / Fold change (Aza/veh), C12orf56 (ProbeSet 11735607_a_at) / Fold change (ACY-1035/veh), C12orf56 (ProbeSet 11735607_a_at) / Fold change (Aza/veh), FGFR1OP (ProbeSet 11751329_s_at) / Fold change (ACY-1035/veh), FGFR1OP (ProbeSet 11751329_s_at) / Fold change (Aza/veh), VPS36 (ProbeSet 11739960_a_at) / Fold change (ACY-1035/veh), VPS36 (ProbeSet 11739960_a_at) / RFU SYPL1 (11715823_x_at) / Fold change /veh SYPL1 (11715823_x_at) / RFU IGFBP7 (11715501_s_at) / Fold change /veh IGFBP7 (11715501_s_at) / RFU REEP3 (11722064_at) / Fold change /veh REEP3 (11722064_at) / RFU IGLL1 (11728026_x_at) / Fold change /veh IGLL1 (11728026_x_at): dose or concentration left out as unconfirmed
Settings: MV-4-11 cells, 48 hours

In the case of `Nc1ncn([C@@H]2O[C@H](CO)[C@@H](O)[C@H]2O)c(=O)n1` [azacitidine], the “RFU MAGEB2 (11727129_at)” value is reported as 14.25 RFU.
